Assay results as given in the supplement of paper PMC10307832.

Legend:
Experiment in all cases: relative viability (nuclei count vs DMSO), 5 days (fraction); higher = more cells survive
[1] = tested on: NCI-H2085
Outline: (§1)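 Each reported value is a median over duplicate plates. It expresses relative viability: treated-well nuclei count divided by vehicle-well nuclei count. Lung cancer cell lines in 1536-well plates were dosed by pin tool a day after seeding, alone with one drug or with a fixed anchor-drug dose plus five library-drug doses (not always all listed) in √10 steps, and nuclei were counted after 5 days.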

[2] = tested on: NCI-H358
Outline: as §1

[3] = tested on: SW 1573
Outline: as §1

[4] = tested on: 201T
Outline: as §1

[5] = tested on: LCLC-97TM1
Outline: as §1

[6] = tested on: NCI-H1975
Outline: as §1

[7] = tested on: HCC-44
Outline: as §1

[8] = tested on: NCI-H2342
Outline: as §1

[9] = tested on: H3255
Outline: as §1

[10] = tested on: BEN
Outline: as §1

[11] = tested on: NCI-H1437
Outline: as §1

[12] = tested on: NCI-H1666
Outline: as §1

[13] = tested on: NCI-H647
Outline: as §1

[14] = tested on: EPLC-272H
Outline: as §1

[15] = tested on: PC-3 [JPC-3]
Outline: as §1

[16] = tested on: LU99A
Outline: as §1

[17] = tested on: NCI-H1395
Outline: as §1

[18] = tested on: NCI-H2126
Outline: as §1

[19] = tested on: COR-L 105
Outline: as §1

[20] = tested on: LOU-NH91
Outline: as §1

[21] = tested on: HCC-827
Outline: as §1

[22] = tested on: EKVX
Outline: as §1

[23] = tested on: NCI-H2087
Outline: as §1

[24] = tested on: HOP-62
Outline: as §1

## Clc1ccc(Nc2nnc(Cc3ccncc3)c3ccccc23)cc1 [Vatalanib] + CC(=O)Nc1cccc(-n2c(=O)n(C3CC3)c(=O)c3c(Nc4ccc(I)cc4F)n(C)c(=O)c(C)c32)c1 [Trametinib] (partner 0.02 µM)
[1]; first compound 0.04 µM
  relative viability: 0.516
[1]; first compound 0.1265 µM
  relative viability: 0.384
[1]; first compound 0.4 µM
  relative viability: 0.645
[1]; first compound 1.265 µM
  relative viability: 0.484
[1]; first compound 4 µM
  relative viability: 0.735
[2]; first compound 0.04 µM
  relative viability: 0.156
[2]; first compound 0.1265 µM
  relative viability: 0.122
[2]; first compound 0.4 µM
  relative viability: 0.151
[2]; first compound 1.265 µM
  relative viability: 0.13
[2]; first compound 4 µM
  relative viability: 0.138
[3]; first compound 0.1265 µM
  relative viability: 0.569
[3]; first compound 0.4 µM
  relative viability: 0.607
[3]; first compound 1.265 µM
  relative viability: 0.58
[3]; first compound 4 µM
  relative viability: 0.564
[4]; first compound 0.04 µM
  relative viability: 0.718
[4]; first compound 0.1265 µM
  relative viability: 0.743
[4]; first compound 0.4 µM
  relative viability: 0.75
[4]; first compound 1.265 µM
  relative viability: 0.731
[4]; first compound 4 µM
  relative viability: 0.735
[5]; first compound 0.04 µM
  relative viability: 0.18
[5]; first compound 0.1265 µM
  relative viability: 0.197
[5]; first compound 0.4 µM
  relative viability: 0.198
[5]; first compound 1.265 µM
  relative viability: 0.195
[5]; first compound 4 µM
  relative viability: 0.184
[6]; first compound 0.04 µM
  relative viability: 0.317
[6]; first compound 0.1265 µM
  relative viability: 0.345
[6]; first compound 0.4 µM
  relative viability: 0.434
[6]; first compound 1.265 µM
  relative viability: 0.315
[6]; first compound 4 µM
  relative viability: 0.361
[7]; first compound 0.04 µM
  relative viability: 1.06
[7]; first compound 0.1265 µM
  relative viability: 1.07
[7]; first compound 0.4 µM
  relative viability: 0.959
[7]; first compound 1.265 µM
  relative viability: 0.994
[7]; first compound 4 µM
  relative viability: 1.02
[8]; first compound 0.04 µM
  relative viability: 0.766
[8]; first compound 0.1265 µM
  relative viability: 0.794
[8]; first compound 0.4 µM
  relative viability: 0.737
[8]; first compound 1.265 µM
  relative viability: 0.747
[8]; first compound 4 µM
  relative viability: 0.804
[9]; first compound 0.04 µM
  relative viability: 0.563
[9]; first compound 0.1265 µM
  relative viability: 0.606
[9]; first compound 0.4 µM
  relative viability: 0.57
[9]; first compound 1.265 µM
  relative viability: 0.583
[9]; first compound 4 µM
  relative viability: 0.58
[10]; first compound 0.04 µM
  relative viability: 1.12
[10]; first compound 0.1265 µM
  relative viability: 1.04
[10]; first compound 0.4 µM
  relative viability: 0.976
[10]; first compound 1.265 µM
  relative viability: 1.12
[10]; first compound 4 µM
  relative viability: 0.977
[11]; first compound 0.04 µM
  relative viability: 0.571
[11]; first compound 0.1265 µM
  relative viability: 0.499
[11]; first compound 0.4 µM
  relative viability: 0.554
[11]; first compound 1.265 µM
  relative viability: 0.451
[11]; first compound 4 µM
  relative viability: 0.486
[12]; first compound 0.04 µM
  relative viability: 0.83
[12]; first compound 0.1265 µM
  relative viability: 0.886
[12]; first compound 0.4 µM
  relative viability: 0.88
[12]; first compound 1.265 µM
  relative viability: 0.912
[12]; first compound 4 µM
  relative viability: 0.782
[13]; first compound 0.04 µM
  relative viability: 0.538
[13]; first compound 0.1265 µM
  relative viability: 0.614
[13]; first compound 0.4 µM
  relative viability: 0.581
[13]; first compound 1.265 µM
  relative viability: 0.407
[13]; first compound 4 µM
  relative viability: 0.499
[14]; first compound 0.04 µM
  relative viability: 0.284
[14]; first compound 0.1265 µM
  relative viability: 0.247
[14]; first compound 0.4 µM
  relative viability: 0.327
[14]; first compound 1.265 µM
  relative viability: 0.264
[14]; first compound 4 µM
  relative viability: 0.268
[15]; first compound 0.04 µM
  relative viability: 0.78
[15]; first compound 0.1265 µM
  relative viability: 0.675
[15]; first compound 0.4 µM
  relative viability: 0.547
[15]; first compound 1.265 µM
  relative viability: 0.619
[15]; first compound 4 µM
  relative viability: 0.646
[16]; first compound 0.04 µM
  relative viability: 0.563
[16]; first compound 0.1265 µM
  relative viability: 0.527
[16]; first compound 0.4 µM
  relative viability: 0.647
[16]; first compound 1.265 µM
  relative viability: 0.492
[16]; first compound 4 µM
  relative viability: 0.521
[17]; first compound 0.04 µM
  relative viability: 1.1
[17]; first compound 0.1265 µM
  relative viability: 1.03
[17]; first compound 0.4 µM
  relative viability: 1.14
[17]; first compound 4 µM
  relative viability: 0.974
[18]; first compound 0.04 µM
  relative viability: 0.539
[18]; first compound 0.1265 µM
  relative viability: 0.612
[18]; first compound 0.4 µM
  relative viability: 0.591
[18]; first compound 1.265 µM
  relative viability: 0.528
[18]; first compound 4 µM
  relative viability: 0.536
[19]; first compound 0.04 µM
  relative viability: 0.451
[19]; first compound 0.1265 µM
  relative viability: 0.363
[19]; first compound 0.4 µM
  relative viability: 0.427
[19]; first compound 1.265 µM
  relative viability: 0.443
[19]; first compound 4 µM
  relative viability: 0.426
[20]; first compound 0.04 µM
  relative viability: 0.769
[20]; first compound 0.1265 µM
  relative viability: 0.764
[20]; first compound 0.4 µM
  relative viability: 0.794
[20]; first compound 1.265 µM
  relative viability: 0.746
[20]; first compound 4 µM
  relative viability: 0.765
[21]; first compound 0.04 µM
  relative viability: 0.519
[21]; first compound 0.1265 µM
  relative viability: 0.578
[21]; first compound 1.265 µM
  relative viability: 0.52
[21]; first compound 4 µM
  relative viability: 0.522
[22]; first compound 0.04 µM
  relative viability: 0.274
[22]; first compound 0.1265 µM
  relative viability: 0.409
[22]; first compound 0.4 µM
  relative viability: 0.308
[22]; first compound 1.265 µM
  relative viability: 0.351
[22]; first compound 4 µM
  relative viability: 0.39
[23]; first compound 0.04 µM
  relative viability: 0.245
[23]; first compound 0.1265 µM
  relative viability: 0.197
[23]; first compound 0.4 µM
  relative viability: 0.249
[23]; first compound 1.265 µM
  relative viability: 0.194
[23]; first compound 4 µM
  relative viability: 0.179
[24]; first compound 0.04 µM
  relative viability: 0.388
[24]; first compound 0.1265 µM
  relative viability: 0.382
[24]; first compound 0.4 µM
  relative viability: 0.42
[24]; first compound 1.265 µM
  relative viability: 0.367
[24]; first compound 4 µM
  relative viability: 0.355
